Literature values, collected in patent publication US20100028432A1, “FORMULATIONS OF ACTIVE PRINCIPLES INCORPORATED IN SLNS SUITABLE FOR TRANSDERMAL ADMINISTRATION” (NANOVECTOR S.R.L., priority 2006, published 2010).

What was measured:
[1] = in vivo
[2] = administered orally
[3] = transdermal systems of U.S. Pat. No. 5,508,039 containing melatonin powder and an absorption enhancer; in vitro tests
[4] = intravenous bolus injection

SMILES	elimination time [1]	bioavailability [2]	plasma clearance ([2]; marked first-pass hepatic metabolism)	half-life of melatonin [3] [h]	half-life [4]
CN1CCc2cccc3c2[C@H]1Cc1ccc(O)c(O)c1-3 [Apomorphine]	about 33 minutes				
COc1ccc2[nH]cc(CCNC(C)=O)c2c1 [melatonin, N-acetyl-5-methoxytryptamine]		low and variable bioavailability	rapid plasma clearance	≤ 2	around 40 minutes
